{"source": "patent US20190314345A1", "about": "“CALCINEURIN INHIBITOR AND NON-STEROIDAL ANTI-INFLAMMATORY DRUG TO REDUCE RISK OF POST-IMAGING PANCREATITIS” (UNIVERSITY OF PITTSBURGH - OF THE COMMONWEALTH SYSTEM OF …, priority 2016, published 2019)", "key": {"[1]": {"system": "duct manipulation (DM) model in mice", "test": "Duct manipulation (DM) mild model with intraductal Cn inhibitors", "format": "in vivo, mouse", "conditions": "FK506 1 μM, CsA 10 μM", "protocol": "(§1) PEP was induced as previously described^73. Briefly, 100 μl iohexol (Omnipaque, GE Healthcare, Princeton, N.J.) was infused retrograde into the biliopancreatic duct at a rate of 20 μl/min for 5 min. Mice from the ductal manipulation (DM) group received retrograde infusion of 50 μl normal saline into pancreatic ductal at a lower rate of 10 μl/min for 5 min. Mice were euthanized 24 hr after PEP induction by CO2 inhalation and cervical dislocation. Mice from the sham group received laparotomy only. The pancreas, duodenum, and spleen were placed en bloc in a cassette in order to maintain anatomical orientation (FIG. 18A). The tissues were fixed in 4% paraformaldehyde at room temperature for 24 hr. Paraffin-embedded sections were stained with hematoxylin and eosin (HE). Ten systematically selected fields at 200× magnification were graded in a blinded fashion from the head of the pancreas, which was identified by its juxtaposition to the duodenum. The grading score gave equal weight (from 0 to 3) for edema, inflammatory infiltration, and necrosis, as described^5. Edema indices were further delineated objectively by performing intensity thresholding using ImageJ software (NIH, Bethesda, Md.). […] Labelled areas within the parenchyma were marked as edema, and their surface area was calculated as a percentage of the total parenchymal area."}, "PEP model in mice": {"system": "PEP model in mice", "test": "PEP model with intraductal delivery of Cn inhibitors with the radiocontrast", "format": "in vivo, mouse", "conditions": "CsA 10 μM", "protocol": "as §1, with “only. Blood was collected by retro-orbital bleed 6 h after PEP induction. […] Serum amylase was measured using a Phadebas Kit (Amersham Pharmacia, Rochester, N.Y.) according to the manufacturer's instruction.” for “only.”, “duodenum.” for “duodenum. The grading score gave equal weight (from 0 to 3) for edema, inflammatory infiltration, and necrosis, as described^5. Edema indices were further delineated objectively by performing intensity thresholding using ImageJ software (NIH, Bethesda, Md.).”"}, "pancreatic NF-κB": {"system": "pancreatic NF-κB", "test": "Imaging pancreatic NF-κB bioluminescence in vivo", "parameters": "species or system mouse", "conditions": "FK506 treatment", "protocol": "An AAV6-NF-κB-luciferase reporter was constructed, expanded in HEK293 cells, and purified as previously described^18-20, 39. A volume of 100 μl of virus (10^12 GCP/ml) was infused into the pancreaticobiliary duct at a rate of 10 μl/min using the same technique of RC infusion described above and recently published^21, 39. After a 5-week recovery from the surgery, mice underwent PEP induction with or without FK506 treatment. At varying time points after the surgery, ranging from 2 to 36 hr, bioluminescence signals were obtained by first giving a subcutaneous injection of luciferin (150 μg/g body weight) in the scruff of the neck 15 min before the start of imaging. The mice were briefly anesthetized with isoflurane and placed in the supine position in a bioluminescent imaging chamber (IVIS spectrum imager; Perkin Elmer, Waltham, Mass.) for 3-10 min. Average pixel intensity was measured from a pancreatic region of interest (in the upper abdomen). Raw time points from each mouse were normalized to its individual baseline intensity at time zero."}, "primary acinar cells": {"system": "primary acinar cells", "test": "Cell necrosis assay (propidium iodide uptake) in primary acinar cells", "format": "cell-based, mouse", "conditions": "6 hr incubation; U73122 5 μM, 2-APB 100 μM, BAPTA 64 μM, IKK-2 20 μM, FK506 24 μM, CsA 16 μM", "protocol": "(§2) Acinar cells were incubated in a 48-well plate with 50 μg/ml of propidium iodide (PI) for 30 min prior to addition of RC. Fluorescence was measured at 536 nm excitation and 617 nm emission wavelengths over time a time course of up to 6 hr. Fluorescence was measured after cell lysis with 0.5% Triton-X 100 was used to normalize the results relative to total DNA."}, "[2]": {"test": "Dissolution in ready-to-use iohexol formulation", "format": "physicochemical", "conditions": "FK506 1 μM, CsA 10 μM"}, "AR42J cells": {"system": "AR42J cells", "test": "Cell necrosis assay in AR42J cells", "format": "cell-based", "conditions": "FK506 24 μM, CsA 16 μM", "protocol": "as §2"}, "calcineurin": {"system": "calcineurin", "test": "NFAT-luciferase activity assay in mouse primary acinar cells", "format": "cell-based", "conditions": "30 min pre-treatment; FK506 24 μM, CsA 16 μM, BAPTA-AM 64 μM", "protocol": "Acinar cells were infected with Ad-NFAT-luciferase following a previously described procedure^10, 15, 16. The construct includes a luciferase gene placed downstream of an IL-4 promoter which contains nine tandem NFAT binding sites^10. Acinar cells were incubated with the NFAT-driven luciferase adenovirus for 1.5 hr prior to stimulation. All of the stated inhibitors were added for 30 min prior to stimulation with RC. NFAT-luciferase was measured using the luciferase assay system. Briefly, cells were spun at 1,000 rpm for 5 min, washed with PBS, and lysed using reporter lysis 5× buffer (Promega #E397A, Madison, Wis.). Samples were vortexed and spun at 12,000 g for 2 min. Supernatant was plated, and luminescence was measured using a Synergy H1 plate reader (BioTek, Winooski, Vt.) and normalized to total protein."}}, "data": [{"smiles": "C=CC[C@@H]1/C=C(\\C)C[C@H](C)C[C@H](OC)[C@H]2O[C@@](O)(C(=O)C(=O)N3CCCC[C@H]3C(=O)O[C@H](/C(C)=C/[C@@H]3CC[C@@H](O)[C@H](OC)C3)[C@H](C)[C@@H](O)CC1=O)[C@H](C)C[C@@H]2OC", "note": "[FK506, tacrolimus]", "values": [{"measurement": "effect on mild histological damage seen with DM", "setting": "[1]", "value": "did not affect"}, {"measurement": "serum amylase elevations seen with PEP", "setting": "PEP model in mice; 6 hr after infusion, intraductal FK506 1 μM", "value": "reduced"}, {"measurement": "reduction of severity of the moderate model of PEP", "setting": "PEP model in mice; intraductal with radiocontrast, FK506 1 μM, down to sham levels", "value": 61, "unit": "%"}, {"measurement": "effect on RC-induced pancreatic NF-κB", "setting": "pancreatic NF-κB", "value": "markedly blunted"}, {"measurement": "effect on RC (12%)-induced acinar cell injury (PI uptake)", "setting": "primary acinar cells", "value": "prevented"}, {"measurement": "dissolution in the ready-to-use iohexol formulation", "setting": "[2]", "value": "easily dissolved"}, {"measurement": "effect on RC (12%)-induced acinar cell necrosis", "setting": "AR42J cells", "value": "prevented"}, {"measurement": "effect on RC-induced rise in NFAT-luciferase", "setting": "calcineurin", "value": "largely prevented"}]}]}
